Patent US20170008888A1 (KYORIN PHARMACEUTICAL CO., LTD., priority 2014, published 2017)
Like-named read-outs stand apart in the source and are kept apart here. Marks after values point to notes of the source that are not given here.

Assays:
[1] = tested on: cynomolgus monkey PBMCs; experiment: Cytokine response by primary cynomolgus monkey PBMCs stimulated with LPS; type: cell-based, cynomolgus monkey (M. fascicularis); conditions: Macaca fascicularis, PBMC, 100 ng/ml LPS 20 h
Protocol: Freshly isolated cynomolgus monkey (M. fascicularis) peripheral blood mononuclear cells (PBMCs) were purchased from SNBL (Everett, Wash.). Cells were seeded at 1.8e6 cells/ml in RPMI 1640 (Life Technologies, Grand Island, N.Y.) containing 10% (v/v) charcoal-dextran treated, heat inactivated FBS (Omega Scientific, Tarzana, Calif.), 0.05 mM 2-Mercaptoethanol (Sigma-Aldrich, St. Louis, Mo.), and 1×Pen/Strep Amphotericin B (Lonza, Allendale, N.J.). Cells were pre-treated with 0.1% DMSO or with a test compound for 1 h at 37° C. in a humidified atmosphere at 5% CO2. Compounds were tested at 10 μM down by ⅕ in a 4-point serial dilution series. Cells were then stimulated with 100 ng/ml LPS from E. coli 0111:B4 (EMD Millipore, Billerica, Mass.) for 20 h at 37° C. in a humidified atmosphere at 5% CO2. Supernatant was collected and analyzed using the Milliplex Map Non-human Primate Cytokine Magnetic Bead Panel Kit (EMD Millipore) as per manufacturer's protocols. Magnetic beads were read on the Bio-Plex MAGPIX multiplex reader instrument using the accompanying xPONENT 4.2 acquisition software (Bio-Rad Laboratories, Hercules, Calif.). Data were analyzed via the Bio-Plex Manager software v6.1 (Bio-Rad Laboratories).

[2] = tested on: Imiquimod-induced psoriasis mouse model; experiment: Imiquimod (IMQ)-induced acute model of psoriasis in mouse: skin thickness, erythema, scaling; type: in vivo, mouse (Balb/c)
Protocol: Material and methods for the IMQ study were adapted from van der Fits et al. J Immunol., 2009, 182: 5836-5845. Eight week old male Balb/c mice (Harlan) received a daily topical dose of 62.5 mg 5% IMQ cream (Aldara™, Medicis) equivalent to 3.125 mg IMQ, on the shaved back (approximately 2×3.5 cm patch) and dorsal surface of the right ear for 6 consecutive days. Sham control mice were treated similarly with control cream (Hydrous Emulsified Base, HEB, Cream, Fagron). Treatments were administered by group as indicated in Table 1 below prior to daily application of IMQ (QD and morning dose of BID regimens), n=10 for all groups. […] Body weights and scoring of induced clinical disease were performed after dosing (Days 1-7) but prior to IMQ application (Days 1-6) on Days 1 (baseline), 3, 4, 6, 8. Mice were sacrificed on Day 8 and treated back skin tissue collected and divided for fixation for histopathology (a 12 mm punch in mid-back) the remainder flash frozen; right (IMQ) and left (control) ears, spleen (after wet weight) and lung were also individually collected and flash frozen, and stored at −70° C. for subsequent biochemical analyses. Statistics were performed using one-way ANOVA with Dunnett's post-hoc test comparing treated groups to the vehicle group, using InStat software (GraphPad, La Jolla, Calif.).
The severity of clinical disease was assessed by
1) skin thickness dial gauge micrometer measurements (duplicate) of the ears and the dorsal skin at the midline of the back (equal to double true measure of dorsal skin thickness)
2) erythema and scaling, independently scored on a scale from 0-4: 0=none, 1=slight, 2=moderate, 3=marked, 4=very marked with intermediate increments of 0.5 allowed.
Clinical disease assessments included erythema, scaling, skin thickness and cumulative disease severity scores and the change in skin thickness of the ears and dorsal back skin over time compared to baseline measurements (Tables 19 and 20). Body weights of the mice were measured at baseline and at end of study, and there were no significant changes in weight in any treatment group during the study (data not shown).

Structure (SMILES): CCOc1cc(C(=O)N2CCCN(C)CC2)ccc1Nc1cc2c(cn1)N(C)C(=O)c1ccccc1N2C [Compound 8]
- EC50 ([1]; read-out: EC50 (μM) under LPS stimulation, G-CSF): 0.58 µM
- EC50 ([1]; read-out: EC50 (μM) under LPS stimulation, GM-CSF): 0.5 µM
- EC50 ([1]; read-out: EC50 (μM) under LPS stimulation, IFN-γ): 0.55 µM
- EC50 ([1]; read-out: EC50 (μM) under LPS stimulation, IL-1ra): 0.71 µM
- EC50 ([1]; read-out: EC50 (μM) under LPS stimulation, IL-1β): 0.47 µM
- EC50 ([1]; read-out: EC50 (μM) under LPS stimulation, IL-4): 1.29 µM
- EC50 ([1]; read-out: EC50 (μM) under LPS stimulation, IL-6): 1.42 µM
- EC50 ([1]; read-out: EC50 (μM) under LPS stimulation, IL-8): 0.98 µM
- EC50 ([1]; read-out: EC50 (μM) under LPS stimulation, IL-10): 0.52 µM
- EC50 ([1]; read-out: EC50 (μM) under LPS stimulation, IL-12/IL-23 (p40)): 0.75 µM
- EC50 ([1]; read-out: EC50 (μM) under LPS stimulation, MCP-1): 0.32 µM
- EC50 ([1]; read-out: EC50 (μM) under LPS stimulation, MIP-1α): 1.63 µM
- EC50 ([1]; read-out: EC50 (μM) under LPS stimulation, MIP-1β): 4.45 µM
- EC50 ([1]; read-out: EC50 (μM) under LPS stimulation, TNF-α): 0.63 µM
- EC50 ([1]; read-out: EC50 (μM) under LPS stimulation, VEGF): 0.9 µM
- EC50 ([1]; read-out: EC50 (μM) under LPS stimulation, sCD40L): 1.14 µM
- Clinical Score Erythema (0-4), AVG Score ([2]; Day 1 (baseline), 60 mpk BID): 0
- Clinical Score Scaling (0-4), AVG Score ([2]; Day 1 (baseline), 60 mpk BID): 0
- % Mean DORSAL BACK THICKNESS versus day 1, AVG ([2]; Day 3, 60 mpk BID): 33.49%
- % Mean LEFT EAR THICKNESS [Control] versus day 1, AVG ([2]; Day 3, 60 mpk BID): −5.16%
- % Mean RIGHT EAR THICKNESS [IMQ] versus day 1, AVG ([2]; Day 3, 60 mpk BID): 0.09%
- Clinical Score Erythema (0-4), AVG Score ([2]; Day 3, 60 mpk BID): 1.25
- Clinical Score Scaling (0-4), AVG Score ([2]; Day 3, 60 mpk BID): 0.5
- % Mean DORSAL BACK THICKNESS versus day 1, AVG ([2]; Day 4, 60 mpk BID): 43.51%
- % Mean LEFT EAR THICKNESS [Control] versus day 1, AVG ([2]; Day 4, 60 mpk BID): −6.51%
- % Mean RIGHT EAR THICKNESS [IMQ] versus day 1, AVG ([2]; Day 4, 60 mpk BID): 5.74%
- Clinical Score Erythema (0-4), AVG Score ([2]; Day 4, 60 mpk BID): 1.4
- Clinical Score Scaling (0-4), AVG Score ([2]; Day 4, 60 mpk BID): 0.6
- % Mean DORSAL BACK THICKNESS versus day 1, AVG ([2]; Day 6, 60 mpk BID): 74.47** %
- % Mean LEFT EAR THICKNESS [Control] versus day 1, AVG ([2]; Day 6, 60 mpk BID): 1.15%
- % Mean RIGHT EAR THICKNESS [IMQ] versus day 1, AVG ([2]; Day 6, 60 mpk BID): 36.67* %
- Clinical Score Erythema (0-4), AVG Score ([2]; Day 6, 60 mpk BID): 2.15
- Clinical Score Scaling (0-4), AVG Score ([2]; Day 6, 60 mpk BID): 2.8
- % Mean DORSAL BACK THICKNESS versus day 1, AVG ([2]; Day 8, 60 mpk BID): 32.42^NS %
- % Mean LEFT EAR THICKNESS [Control] versus day 1, AVG ([2]; Day 8, 60 mpk BID): −2.25%
- % Mean RIGHT EAR THICKNESS [IMQ] versus day 1, AVG ([2]; Day 8, 60 mpk BID): 33.58** %
- Clinical Score Erythema (0-4), AVG Score ([2]; Day 8, 60 mpk BID): 1.95
- Clinical Score Scaling (0-4), AVG Score ([2]; Day 8, 60 mpk BID): 1.7
